Data from ChEMBL document CHEMBL5365419, “Identification of a Protein Arginine Methyltransferase 7 (PRMT7)/Protein Arginine Methyltransferase 9 (PRMT9) Inhibitor” (J Med Chem, 2023).
Calls of active or inactive are those of the source. The rule behind the calls is not given here.

Columns and labels:
[1] = biological target: T1, Protein arginine N-methyltransferase 7 (Homo sapiens) (UniProt Q9NVM4); assay: Inhibition of PRMT7 catalysed methylation of HSP70 at R469 residue in HEK293T cells assessed as increase in ratio of abundance of unmethylated over methylated peptides at 10 to 50 uM by UHPLC- MS/MS analysis; assay type: cell-based; conditions: dose 10-50 µM, time 24-48 hrs, TDE = time-dependent effect
T1 sequence (whole entry): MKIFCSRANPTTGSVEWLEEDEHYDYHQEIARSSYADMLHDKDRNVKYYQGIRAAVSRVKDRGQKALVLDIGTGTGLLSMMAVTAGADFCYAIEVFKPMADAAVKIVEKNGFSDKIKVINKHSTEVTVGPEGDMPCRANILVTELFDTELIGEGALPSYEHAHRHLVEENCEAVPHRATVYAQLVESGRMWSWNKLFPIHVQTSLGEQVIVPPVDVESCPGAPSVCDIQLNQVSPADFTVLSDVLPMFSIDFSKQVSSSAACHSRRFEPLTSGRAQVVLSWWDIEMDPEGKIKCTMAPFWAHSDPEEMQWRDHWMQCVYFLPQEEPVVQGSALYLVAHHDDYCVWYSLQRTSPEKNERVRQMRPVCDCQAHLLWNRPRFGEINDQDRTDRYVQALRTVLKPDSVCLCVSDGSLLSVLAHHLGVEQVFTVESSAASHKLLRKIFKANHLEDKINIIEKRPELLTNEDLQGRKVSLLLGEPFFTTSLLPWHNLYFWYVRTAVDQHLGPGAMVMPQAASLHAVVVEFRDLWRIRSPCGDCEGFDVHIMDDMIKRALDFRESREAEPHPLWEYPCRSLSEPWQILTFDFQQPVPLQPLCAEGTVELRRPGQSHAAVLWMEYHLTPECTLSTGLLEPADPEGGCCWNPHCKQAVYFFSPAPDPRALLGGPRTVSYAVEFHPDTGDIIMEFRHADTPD

[2] = biological target: T2, Histone-lysine N-methyltransferase SMYD3 (Homo sapiens) (UniProt Q9H7B4); assay: Inhibition of C-terminal His/GST-tagged human recombinant SMYD3 (2 to 428 residues) at higher concentration using 3H-SAM as substrate incubated for 60 mins by scintillation counter analysis
T2 sequence (whole entry): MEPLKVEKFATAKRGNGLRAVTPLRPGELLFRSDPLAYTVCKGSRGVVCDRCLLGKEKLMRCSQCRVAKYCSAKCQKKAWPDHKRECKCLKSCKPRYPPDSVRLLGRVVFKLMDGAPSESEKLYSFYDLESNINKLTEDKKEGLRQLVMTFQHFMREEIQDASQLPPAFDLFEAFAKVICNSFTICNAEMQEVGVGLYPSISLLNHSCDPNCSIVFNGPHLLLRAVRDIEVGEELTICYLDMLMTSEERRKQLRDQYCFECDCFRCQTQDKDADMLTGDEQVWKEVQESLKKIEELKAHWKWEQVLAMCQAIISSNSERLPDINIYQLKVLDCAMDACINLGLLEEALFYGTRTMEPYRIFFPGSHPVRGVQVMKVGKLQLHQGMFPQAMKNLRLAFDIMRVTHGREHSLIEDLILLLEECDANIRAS

[3] = biological target: T1, Protein arginine N-methyltransferase 7 (Homo sapiens); assay: Inhibition of PRMT7 catalysed methylation of HSP70 at R469 residue in HEK293T cells assessed as increase in ratio of abundance of unmethylated over methylated peptides measured after 24 to 48 hrs by UHPLC- MS/MS analysis; assay type: cell-based; conditions: dose 10-50 µM, time 24-48 hrs
[4] = biological target: T1, Protein arginine N-methyltransferase 7 (Homo sapiens); assay: Inhibition of PRMT7 catalysed methylation of HNRNPA1 at R194 residue in HEK293T cells assessed as increase in ratio of abundance of unmethylated over methylated peptides measured after 24 to 48 hrs by UHPLC- MS/MS analysis; assay type: cell-based; conditions: dose 10-50 µM, time 24-48 hrs
[5] = biological target: Histone-lysine N-methyltransferase SUV39H2 (Homo sapiens) (UniProt Q9H5I1); assay: Inhibition of N-terminal/C-terminal His/GST-tagged human recombinant SUV39H2 (46 to 410 residues) at higher concentration using H3 histone as substrate and 3H-SAM as cosubstrate incubated for 60 mins by scintillation counter analysis
[6] = biological target: T1, Protein arginine N-methyltransferase 7 (Homo sapiens); assay: Inhibition of PRMT7 catalysed methylation of HNRNPA1 at R194 residue in HEK293T cells assessed as increase in ratio of abundance of unmethylated over methylated peptides at 10 to 50 uM by UHPLC- MS/MS analysis; assay type: cell-based; conditions: dose 10-50 µM, time 24-48 hrs, TDE = time-dependent effect
[7] = biological target: T1, Protein arginine N-methyltransferase 7 (Homo sapiens); assay: Inhibition of PRMT7 catalysed methylation of HNRNPA1 at R194 residue in HEK293T cells assessed as increase in ratio of abundance of unmethylated over methylated peptides at 10 to 50 uM measured after 24 to 48 hrs by UHPLC- MS/MS analysis; assay type: cell-based; conditions: dose 10-50 µM, time 24-48 hrs

Histone-lysine N-methyltransferase SUV39H2 (Homo sapiens), sequence (Q9H5I1 whole entry, the tested form may be a part): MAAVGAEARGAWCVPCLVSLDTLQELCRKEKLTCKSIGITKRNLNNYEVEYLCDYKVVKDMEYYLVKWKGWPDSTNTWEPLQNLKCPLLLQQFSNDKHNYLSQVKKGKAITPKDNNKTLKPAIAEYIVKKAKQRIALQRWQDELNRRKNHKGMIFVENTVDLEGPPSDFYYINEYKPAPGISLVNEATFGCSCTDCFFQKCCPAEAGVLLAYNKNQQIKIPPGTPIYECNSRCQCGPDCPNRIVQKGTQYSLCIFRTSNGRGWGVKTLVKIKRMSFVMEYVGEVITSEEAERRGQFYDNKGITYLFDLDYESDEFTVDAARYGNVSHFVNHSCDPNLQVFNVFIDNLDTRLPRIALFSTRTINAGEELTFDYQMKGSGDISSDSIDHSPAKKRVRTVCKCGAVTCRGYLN

For COC(=O)c1cc(O)c2cc(NC(=O)NCCCNC(=N)NC[C@H]3O[C@@H](n4cnc5c(N)ncnc54)[C@H](O)[C@@H]3O)cc(C(F)(F)F)c2c1, the inhibition [1] was “Tde”, the inhibition [2] was “inactive” and the inhibition [3] was “Dose-Dependent Effect”. The inhibition [4] was “Dose-Dependent Effect”, the inhibition [5] was “inactive” and the inhibition [6] was “Tde”. For the same molecule, the inhibition [7] was “Active”.
